Results reported in EP0466251A1, “Elfamycin-resistant mutants” (priority 1990, dated 1992).
Converted amounts (≈) assume the structure as drawn.

Columns and labels:
[1] = system: S. ramocissimus R1V; experiment: growth of plated mycelium, minimal inhibitory concentration; assay type: cell-based; details: mycelium pregrown in YMG medium without mocimycin; 1 ml of a 16 hrs culture plated
Source text: (§1) Essentially identical results were obtained when for each of the strains spores were substituted by mycelium, pregrown in YMG medium without mocimycin.

[2] = system: S. ramocissimus CBS 190.69; experiment: as above; assay type: cell-based; details: mycelium pregrown in YMG medium without mocimycin; 1 ml of a 16 hrs culture plated
Source text: as §1

[3] = system: S. ramocissimus R1V; experiment: germination and growth of spores in liquid YMG medium; assay type: cell-based; details: 5.10⁷ spores/ml, 25 ml YMG medium, shake flasks, 5 days at 30°C
Description: (§2) Spores, mycelium, and protoplasts of strain S. ramocissimus R1V were examined with respect to the minimal inhibitory concentration of mocimycin on their growth properties.
(§3) Spores of strain S. ramocissimus R1V and the control S. ramocissimus CBS 190.69 were inoculated at 5.10⁷ spores/ml in parallel shake flasks containing 25 ml YMG medium and mocimycin at concentrations ranging from 0 to 1 g/l. Incubation was for 5 days at 30°C. For the control strain 0.15 g/l mocimycin inhibited germination (and/or growth) of the spores, whereas spores of S. ramocissimus strain R1V still germinated and grew at mocimycin concentrations up to 0.75 g/l.

[4] = system: S. ramocissimus CBS 190.69; experiment: as above; assay type: cell-based; details: 5.10⁷ spores/ml, 25 ml YMG medium, shake flasks, 5 days at 30°C
Description: as §2, §3

[5] = system: S. ramocissimus R1V; experiment: regeneration of protoplasts on regeneration medium; assay type: cell-based; details: for Regeneration efficiency of protoplasts: regeneration medium
Description: (§4) Spores were isolated essentially as described by D. Hopwood et al. (cited above), and used to inoculate YMG medium (yeast extract 4 g/l, malt extract 10 g/l, glucose 4 g/l) containing 0.5% glycine. Protoplasts were obtained by lysozyme treatment of this culture, transformed as described by D. Hopwood et al. (cited above) with plasmid pMTST1VΔS and pMTST1TΔS. Subsequently the transformed protoplasts were spread on regeneration medium, and incubated at 30°C. Regeneration medium was prepared by mixing equal volumes of sporulation medium and stabilizer medium. Stabilizer medium consisted of NaNO₃ 3 g/l, K₂HPO₄.3H₂O 0.085 g/l, K₂SO₄ 0.25 g/l, FeSO₄.7H₂O 0.01 g/l, trace element solution 0.1 ml, Tris 3.03 g/l, NaCl 2.92 g/l, sucrose 103 g/l, glucose 10 g/l, MgCl₂.6H₂O 5 g/l, CaCl₂.2H₂O 1.5 g/l, and agar 20 g/l, adjusted to pH 7.2 with 4N HCl. […] After 24 hrs the regeneration plates were overlaid with 3 ml soft agar containing 20 µg/ml thiostrepton (D. Hopwood et al., cited above) and incubated at 30°C for 5 days.
(§5) Another test was carried out using protoplasts of strains S. ramocissimus CBS 190.69 and S. ramocissimus R1V, prepared as described in Example 7. […] Thus protoplasts were plated on regeneration medium (Example 7) containing 0 to 0.1 g/l mocimycin. Under these conditions protoplasts of S. ramocissimu CBS 190.69 were able to regenerate only at mocimycin concentrations below 0.02 g/l; regeneration of S. ramocissimus R1V protoplasts in the presence of up to 0.1 g/l mocimycin occurred with the same efficiency as without mocimycin (Table 2).

[6] = system: S. ramocissimus CBS 190.69; experiment: regeneration of protoplasts on regeneration medium; assay type: cell-based; details: for Regeneration efficiency of protoplasts: regeneration medium
Description: as §4, §5

[7] = target: T1, SrEF-Tu mutant A378T (Streptomyces ramocissimus, UniProt P29542, A379T); experiment: in vitro poly(U) directed poly(phe) synthesis; assay type: biochemical, S. ramocissimus
T1 construct: made in house; host or cells: E. coli PM1455
Description: The sensitivity of SrEF-Tu mutants A378V and A378T to elfamycin was tested by in vitro studies. Both parent and mutant S. ramocissimus EF-Tu, after transformation of the respective cloned genes, were expressed in an E. coli strain encoding an elfamycin resistant EF-Tu. Cell-free extracts of these transformants were subsequently tested for elfamycin sensitivity of the translation apparatus, using a variation on the procedure described by C. Glöckner and H. Wolf (cited above). […] The parent SrEF-Tu reached 50% residual activity already at 1.6 mg/l. […]
Plasmids pUSrT1-1, pUSrT1V-1 and pUSrT1T-1 were transformed to E. coli PM1455 (tufA, tufB::Mu, rpoB, recA56; P. van der Meide et al., Eur. J. Biochem. 130 (1983) 409-417); this strain has only one active tuf gene, which encodes an elfamycin resistant EF-Tu. […] The first 4 fractions having absorbance at 260 nm were pooled. […]
At 0°C an incubation mixture was prepared consisting of 40 mM Tris-acetate pH 7.6, 10 mM Mg-acetate, 60 mM NH₄Cl, 5 mM β-mercaptoethanol, 1 mM ATP, 0.025 mM GTP, 2.5 mM phosphoenolpyruvate, 0.25 µg/ml pyruvate kinase, 0.8 mg/ml tRNA, 0.1 mg/ml poly(U), 95 µM phenylalanine, and 3 µCi/ml ³H-phenylalanine (57 Ci/mmol). […] Incorporation of ³H-phenylalanine was analyzed in a liquid scintillation counter. […]

[8] = regeneration medium containing 0 to 0.1 g/l mocimycin

T1 sequence (P29542 whole entry A379T): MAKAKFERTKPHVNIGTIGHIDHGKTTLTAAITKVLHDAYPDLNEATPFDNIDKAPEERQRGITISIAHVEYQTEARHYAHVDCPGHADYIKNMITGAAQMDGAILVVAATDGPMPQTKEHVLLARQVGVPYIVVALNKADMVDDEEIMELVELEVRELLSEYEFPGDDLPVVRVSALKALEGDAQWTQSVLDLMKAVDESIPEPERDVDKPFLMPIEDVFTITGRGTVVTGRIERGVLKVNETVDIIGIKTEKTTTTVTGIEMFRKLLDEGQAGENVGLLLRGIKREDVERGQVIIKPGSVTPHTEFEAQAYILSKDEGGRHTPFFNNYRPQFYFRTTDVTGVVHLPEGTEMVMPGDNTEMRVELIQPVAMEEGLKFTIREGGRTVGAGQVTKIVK

C/C=C\C=C\[C@@H]1O[C@](O)([C@H](CC)C(=O)NC/C=C/C=C(\C)[C@@H](OC)[C@H](C)[C@@H]2O[C@H](/C=C/C=C/C=C(\C)C(=O)c3c(O)cc[nH]c3=O)[C@H](O)[C@@H]2O)[C@H](O)[C@H](O)C1(C)C [mocimycin, Mocimycin]
minimal inhibitory concentration [1]: 750 µg/mL (≈ 941 µM) | minimal inhibitory concentration [2]: 150 µg/mL (≈ 188 µM) | mocimycin concentrations at which spores still germinated and grew [3]: up to 0.75 g/l | mocimycin concentration that inhibited germination (and/or growth) of the spores [4]: 0.15 g/L | mocimycin concentration up to which regeneration occurred with the same efficiency as without mocimycin [5, 8]: up to 0.1 g/l | Regeneration efficiency of protoplasts ([5]; mocimycin 0.01 g/l): 100% | Regeneration efficiency of protoplasts ([5]; mocimycin 0.02 g/l): 100% | Regeneration efficiency of protoplasts ([5]; mocimycin 0.04 g/l): 100% | Regeneration efficiency of protoplasts ([5]; mocimycin 0.07 g/l): 90% | Regeneration efficiency of protoplasts ([5]; mocimycin 0.10 g/l): 80% | mocimycin concentrations at which protoplasts were able to regenerate [6, 8]: below 0.02 g/l | Regeneration efficiency of protoplasts ([6]; mocimycin 0.01 g/l): 40% | Regeneration efficiency of protoplasts ([6]; mocimycin 0.02 g/l): 0% | Regeneration efficiency of protoplasts ([6]; mocimycin 0.04 g/l): 0% | Regeneration efficiency of protoplasts ([6]; mocimycin 0.07 g/l): 0% | Regeneration efficiency of protoplasts ([6]; mocimycin 0.10 g/l): 0% | efficiency of ³H-phenylalanine incorporation compared to the parallel incubation without mocimycin ([7]; 16 mg/l mocimycin, period of 40 minutes): 80% | mocimycin concentration at a residual activity of 50% in the in vitro poly(phe) synthesis ([7]; S-30 extract of E. coli PM1455 transformant, reaction time 10 minutes): 160 mg/L
